From US9187472B2 (AbbVie Inc., priority 2012, dated 2015)

Experiments:
NAMPT = NAMPT (Homo sapiens, UniProt P43490); assay: TR-FRET Binding Assay of NAMPT with PRPP; details: with 200 μM PRPP and 2.5 mM ATP; 2 nM NAMPT, 2 nM probe, 16 hours equilibration
Outline: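 NAMPT 2 nM + probe 2 nM + Tb-anti-His Ab 1 nM; PRPP 200 μM, ATP 2.5 mM, DMSO 2%; 16 h equilibration before TR-FRET read.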

PC3 cells = assay: NAMPT Cell Proliferation Assay; type: cell-based; details: Homo sapiens, PC-3, 120 h, 5 days incubation, cell viability by Cell Titer Glo
Outline: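 Following overnight attachment in RPMI with 10% heat-inactivated FBS, PC3 cells at 500 per well receive compounds spanning 10 μM down to 1×10^−5 μM. Growth is assessed by luminescent viability read after 5 days.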

[1] = biological target: NAMPT (human, recombinant, C-terminally His-tagged) (Homo sapiens, UniProt P43490); assay: Time-Resolved Fluorescence Resonance Energy Transfer (TR-FRET) Binding Assay of NAMPT; details: without substrates; 6.8 nM NAMPT, 200 nM probe, 3 hours equilibration
Sequence of NAMPT (human, recombinant, C-terminally His-tagged) (P43490 whole entry): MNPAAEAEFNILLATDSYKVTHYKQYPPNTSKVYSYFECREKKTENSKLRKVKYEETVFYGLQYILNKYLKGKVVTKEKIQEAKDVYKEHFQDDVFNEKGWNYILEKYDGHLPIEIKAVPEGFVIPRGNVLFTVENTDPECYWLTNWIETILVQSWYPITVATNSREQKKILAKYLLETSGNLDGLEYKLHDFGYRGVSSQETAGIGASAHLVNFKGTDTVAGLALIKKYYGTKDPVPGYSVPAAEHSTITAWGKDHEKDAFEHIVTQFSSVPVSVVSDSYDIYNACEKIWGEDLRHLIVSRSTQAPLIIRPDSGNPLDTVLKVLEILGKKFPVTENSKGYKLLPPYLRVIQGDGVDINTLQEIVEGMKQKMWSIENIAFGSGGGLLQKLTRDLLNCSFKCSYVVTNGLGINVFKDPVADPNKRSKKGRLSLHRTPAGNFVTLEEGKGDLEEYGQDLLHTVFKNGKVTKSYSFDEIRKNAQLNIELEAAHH
Outline: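 Read-out is the time-resolved FRET ratio Em520/Em495 (excitation 337 nm) between a terbium anti-His antibody (1 nM) on the enzyme and an Oregon Green 488-labelled nicotinamide-competitive inhibitor probe (200 nM). Enzyme was 6.8 nM, DMSO 2%, pH 7.5 HEPES buffer; 3 h room-temperature equilibration preceded reading.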

Sequence of NAMPT (P43490 whole entry): as above

Structure (SMILES)	IC50 (NAMPT) [nM]	IC50 (PC3 cells) [nM]	IC50 [1] [nM]
CC(C)C(=O)N1CC[C@H](Oc2ccc(C(=O)NCc3ccn4ccnc4c3)cc2)C1 [Example 351, N-(imidazo[1,2-a]pyridin-7-ylmethyl)-4-{[(3S)-1-(2-methylpropanoyl)pyrrolidin-3-yl]oxy}benzamide]	0.792	8110	8390
O=C(NCc1ccn2ccnc2c1)c1ccc(O[C@H]2CCN(C(=O)C3CC3)C2)cc1 [Example 352, 4-{[(3S)-1-(cyclopropylcarbonyl)pyrrolidin-3-yl]oxy}-N-(imidazo[1,2-a]pyridin-7-ylmethyl)benzamide]	1.06	9800	> 10000
O=C(NCc1ccn2ccnc2c1)c1ccc(O[C@H]2CCN(C(=O)c3ccccc3)C2)cc1 [Example 353, 4-{[(3S)-1-benzoylpyrrolidin-3-yl]oxy}-N-(imidazo[1,2-a]pyridin-7-ylmethyl)benzamide]	0.47	7510	3170
CC(C)(O)CC(=O)N1CC[C@H](Oc2ccc(C(=O)NCc3ccn4ccnc4c3)cc2)C1 [Example 354, 4-{[(3S)-1-(3-hydroxy-3-methylbutanoyl)pyrrolidin-3-yl]oxy}-N-(imidazo[1,2-a]pyridin-7-ylmethyl)benzamide]	0.526	7490	> 10000
O=C(NCc1ccn2ccnc2c1)c1cnc(N2CCN(C(=O)c3ccccc3)CC2)s1 [Example 355, 2-(4-benzoylpiperazin-1-yl)-N-(imidazo[1,2-a]pyridin-7-ylmethyl)-1,3-thiazole-5-carboxamide]	0.169	1940	831
CC(C)N1CCN(c2ncc(C(=O)NCc3ccn4ccnc4c3)s2)CC1 [Example 356, N-(imidazo[1,2-a]pyridin-7-ylmethyl)-2-[4-(propan-2-yl)piperazin-1-yl]-1,3-thiazole-5-carboxamide]	0.169	1020	> 10000
COCCN1CCN(c2ncc(C(=O)NCc3ccn4ccnc4c3)s2)CC1 [Example 357, N-(imidazo[1,2-a]pyridin-7-ylmethyl)-2-[4-(2-methoxyethyl)piperazin-1-yl]-1,3-thiazole-5-carboxamide]	0.291	6740	> 10000
CC(C)CCNC(=O)c1ccc(C(=O)NCc2ccc3nccn3c2)cc1 [Example 358, N-(imidazo[1,2-a]pyridin-6-ylmethyl)-N′-(3-methylbutyl)benzene-1,4-dicarboxamide]	2.19	2260	1840
O=C(NCc1ccc2nccn2c1)c1ccc(C(=O)NC[C@@H]2CCOC2)cc1 [Example 359, N-(imidazo[1,2-a]pyridin-6-ylmethyl)-N′-[(3S)-tetrahydrofuran-3-ylmethyl]benzene-1,4-dicarboxamide]	2.5	8770	> 10000
CCCn1cc(-c2ccc(NC(=O)NCc3ccc4nccn4c3)cc2)cn1 [Example 360, 1-(imidazo[1,2-a]pyridin-6-ylmethyl)-3-[4-(1-propyl-1H-pyrazol-4-yl)phenyl]urea]	0.717	663	291
O=C(NCc1ccn2ccnc2c1)c1cnc(-c2ccccc2)s1 [Example 361, N-(imidazo[1,2-a]pyridin-7-ylmethyl)-2-phenyl-1,3-thiazole-5-carboxamide]	1.94	> 10000	5030
CC(C)Cn1cc(-c2ccc(NC(=O)NCc3ccc4nccn4c3)cc2)cn1 [Example 362, 1-(imidazo[1,2-a]pyridin-6-ylmethyl)-3-{4-[1-(2-methylpropyl)-1H-pyrazol-4-yl]phenyl}urea]	0.256	106	143
Cn1nccc1-c1ccc(C(=O)NCc2ccn3ccnc3c2)s1 [Example 363, N-(imidazo[1,2-a]pyridin-7-ylmethyl)-5-(1-methyl-1H-pyrazol-5-yl)thiophene-2-carboxamide]	0.305	7660	588
CC(C)(C)OC(=O)N1CC(c2ccc(NC(=O)NCc3ccn4ccnc4c3)cc2)C1 [Example 364, tert-butyl 3-(4-{[(imidazo[1,2-a]pyridin-7-ylmethyl)carbamoyl]amino}phenyl)azetidine-1-carboxylate]	0.172	31	135
CC(C)(C)OC(=O)N1CCC(Oc2ccc(C(=O)NCc3ccn4ccnc4c3)cc2)CC1 [Example 365, tert-butyl 4-{4-[(imidazo[1,2-a]pyridin-7-ylmethyl)carbamoyl]phenoxy}piperidine-1-carboxylate]	0.171	332	1340
CC(C)(C)OC(=O)N1CCC(Oc2ccc(NC(=O)NCc3ccn4ccnc4c3)cc2)CC1 [Example 366, tert-butyl 4-(4-{[(imidazo[1,2-a]pyridin-7-ylmethyl)carbamoyl]amino}phenoxy)piperidine-1-carboxylate]	0.435	21.5	146
CC(C)C(=O)N1CCC(c2ccc(C(=O)NCc3ccn4ccnc4c3)cc2)C1 (stereo not drawn) [Example 367, N-(imidazo[1,2-a]pyridin-7-ylmethyl)-4-[1-(2-methylpropanoyl)pyrrolidin-3-yl]benzamide]	0.18	601	650
CC[C@H](C)C(=O)N1CCC(c2ccc(C(=O)NCc3ccn4ccnc4c3)cc2)C1 (stereo partly drawn) [Example 368, N-(imidazo[1,2-a]pyridin-7-ylmethyl)-4-{1-[(2S)-2-methylbutanoyl]pyrrolidin-3-yl}benzamide]	0.317	48.4	602
O=C(NCc1ccn2ccnc2c1)c1ccc(C2CCN(C(=O)CC3CC3)C2)cc1 (stereo not drawn) [Example 369, 4-[1-(cyclopropylacetyl)pyrrolidin-3-yl]-N-(imidazo[1,2-a]pyridin-7-ylmethyl)benzamide]	0.337	738	429
O=C(NCc1ccn2ccnc2c1)c1ccc(C2CCN(C(=O)c3ccccc3)C2)cc1 (stereo not drawn) [Example 370, 4-(1-benzoylpyrrolidin-3-yl)-N-(imidazo[1,2-a]pyridin-7-ylmethyl)benzamide]	0.175	9.93	47.6
CC(C)OCC(=O)N1CCC(c2ccc(C(=O)NCc3ccn4ccnc4c3)cc2)C1 (stereo not drawn) [Example 371, N-(imidazo[1,2-a]pyridin-7-ylmethyl)-4-{1-[(propan-2-yloxy)acetyl]pyrrolidin-3-yl}benzamide]	0.298	820	1440
CC(C)(O)C(=O)N1CCC(c2ccc(C(=O)NCc3ccn4ccnc4c3)cc2)C1 (stereo not drawn) [Example 372, 4-[1-(2-hydroxy-2-methylpropanoyl)pyrrolidin-3-yl]-N-(imidazo[1,2-a]pyridin-7-ylmethyl)benzamide]	0.46	868	2440
O=C(NCc1ccn2ccnc2c1)c1ccc(C2CCN(C(=O)[C@H]3CCCO3)C2)cc1 (stereo partly drawn) [Example 373, N-(imidazo[1,2-a]pyridin-7-ylmethyl)-4-{1-[(2R)-tetrahydrofuran-2-ylcarbonyl]pyrrolidin-3-yl}benzamide]	0.36	585	3040
O=C(NCc1ccn2ccnc2c1)c1ccc(C2CCN(C(=O)[C@@H]3CCCO3)C2)cc1 (stereo partly drawn) [Example 374, N-(imidazo[1,2-a]pyridin-7-ylmethyl)-4-{1-[(2S)-tetrahydrofuran-2-ylcarbonyl]pyrrolidin-3-yl}benzamide]	0.292	792	1670
O=C(NCc1ccn2ccnc2c1)c1ccc(C2CCN(C(=O)[C@H]3CCOC3)C2)cc1 (stereo partly drawn) [Example 375, N-(imidazo[1,2-a]pyridin-7-ylmethyl)-4-{1-[(3S)-tetrahydrofuran-3-ylcarbonyl]pyrrolidin-3-yl}benzamide]	0.241	> 10000	986
O=C(NCc1ccn2ccnc2c1)c1ccc(C2CCN(C(=O)C3CCOCC3)C2)cc1 (stereo not drawn) [Example 376, N-(imidazo[1,2-a]pyridin-7-ylmethyl)-4-[1-(tetrahydro-2H-pyran-4-ylcarbonyl)pyrrolidin-3-yl]benzamide]	0.305	> 10000	1050
O=C(NCc1ccn2ccnc2c1)c1ccc(C2CCN(C(=O)C3COCCO3)C2)cc1 (stereo not drawn) [Example 377, 4-[1-(1,4-dioxan-2-ylcarbonyl)pyrrolidin-3-yl]-N-(imidazo[1,2-a]pyridin-7-ylmethyl)benzamide]	0.275	> 10000	1670
O=C(NCc1ccn2ccnc2c1)c1ccc(C2CCN(C(=O)CC3CCOCC3)C2)cc1 (stereo not drawn) [Example 378, N-(imidazo[1,2-a]pyridin-7-ylmethyl)-4-[1-(tetrahydro-2H-pyran-4-ylacetyl)pyrrolidin-3-yl]benzamide]	0.169	> 10000	897
CC(=O)N1CCC(c2ccc(NC(=O)NCc3ccn4ccnc4c3)cc2)C1 (stereo not drawn) [Example 379, 1-[4-(1-acetylpyrrolidin-3-yl)phenyl]-3-(imidazo[1,2-a]pyridin-7-ylmethyl)urea]	0.29	370	279
